These are literature values, as cited in patent US7955790B2, “Skin substitutes with improved barrier function” (Stratatech Corporation, priority 2001, dated 2011).

Like-named read-outs stand apart in the source and are kept apart here.

Series [1] has as its system in vitro Cultures. As to conditions: for Lipid Composition: substance added to in vitro cultures.
In series [2] the test system is in vitro Cultures. The conditions noted are these: substance added to in vitro cultures.

For Vitamin E, the “Lipid Composition” value in series [1] is given as “No effect”. As to Estrogen, the “Barrier Function” value in series [2] was “Accelerates”. For `O=C1O[C@H]([C@@H](O)CO)C(O)=C1O` [Vitamin C, ascorbic acid], in series [1] (skin equivalent cultures, electron microscopy), the “overall SC architecture” value is on record as “improved”. Besides, the figures for the “Lipid Composition” value in series [1] and in series [1] (listed as vitamin C) were “Major” and “improved”, respectively. Regarding Vitamin D, the “Barrier Function” value in series [2] (listed as vitamin D) is “improvements in some studies”.

Consider “EGF: epidermal growth factor added to in vitro cultures”, for which, in series [1], the “Lipid Composition” value is “High triglycerides”.
